We go through 34 molecules from patent US12673039B2, “Methods of inducing autophagy using coumarin derivatives and related compounds” (Buck Institute for Research on Aging, priority 2019, dated 2026).

Molecules are shown by their SMILES.

This assay deals with TFEB. As to the kind of experiment: TFEB activation screen, % activation/control at 24 and 48 hrs (Table 1). The class given is cell-based, human. The note with it: Homo sapiens, 24 h. As for the experimental part:
FIG. 25, panels A-B::AIC106 identified as a lead compound in a TFEB-transcription based screen. Panel A) Rat Neuronal N27 cells were transfected with a vector construct driving expression of secreted-Gaussia luciferase (Sec-Gaussia) in control of 2 kb human TFEB promoter. Next day, cells were seeded into 96-well cell culture plate and exposed to compounds (30 μM) from natural product library (NPL-640) or DMSO-control. After 24 and 48 hours of compound treatment supernatant from the cells was collected and TFEB promoter activity determined by quantifying luciferase activity. Panel B) Effects of AIC106 treatment on HLH-30 expression after 24 hours treatment were determined by immunoblot against GFP in young adult stage of GFP-tagged HLH-30 strain (MAH235) following total protein extraction.
It was discovered that small structural alterations in the C1 compound can have significant effects on the degree of TFEB activation (see, e.g., FIG. 17) the screening systems described herein identified a number of structures related to C1 that similarly induce TFEB.
In vitro drug screening studies. […] We utilized for these studies a 3000 compound natural product derivative library (Timtec, Newark, DE) in […] transfected with a sensitive TFEB promotor-Gaussian luciferase construct. […] C1 is a coumarin-related compound, part of a family of natural benzopyrones found in many edible plants.
To identify novel transcriptional inducers of TFEB, we transfected rat neuronal N27 cells with a vector driving expression of secreted-luciferase under control of the human TFEB promoter. […] AIC106 belongs to a family of coumarin compounds containing an active benzopyrone ring.
Take `CC(C)(C)OC(=O)C1Cc2cc3c4c(c2OC1=O)CCCN4CCC3` (stereo not shown) [C3 ST083673]: the activity at 30 µM is 328%.
Take `O=c1oc2ccc(Cl)cc2c(-c2ccc(Cl)cc2)c1-c1ccc(Cl)cc1` [H3]: the activity at 30 µM came out at 361%.
For `O=c1oc2ccc(Cl)cc2c(-c2ccccc2)c1-c1ccc(Cl)cc1Cl` [B5], the activity at 30 µM stood at 83.2%.
Then `O=c1oc2ccc(Br)cc2c(-c2ccccc2)c1-c1ccc(Br)cc1` [E5], with 92.5%; and `Cc1cc2oc(=O)c(-c3ccccc3Cl)c(-c3ccccc3)c2cc1Cl` [A6], with 76.6%.
On to `O=c1oc2ccc(Br)cc2c(-c2ccccc2Cl)c1-c1cccc(Cl)c1` [F3], for which the activity at 30 µM was determined as 302%.
Then `Cc1cc2oc(=O)c(-c3ccccc3)c(-c3ccccc3)c2cc1Cl` [A5], with 62.3%.
Then `O=c1oc2c(Cl)cc(Cl)cc2c(-c2ccc(Cl)cc2)c1-c1ccccc1` [C6], with 104%.
Regarding `COc1ccc(-c2c(-c3ccccc3)c3ccc(O)cc3oc2=O)c(Cl)c1OC` [D3], the activity at 30 µM was determined as 381%.
Then `O=c1oc2cc(O)ccc2c(Cc2ccccc2)c1-c1ccccc1` [G2], with 341%; and `Cc1cc2oc(=O)c(-c3ccc(Cl)cc3)c(-c3ccc(Cl)cc3)c2cc1Cl` [D5], with 103%.
Turning to `O=c1oc2ccccc2c(-c2ccccc2)c1-c1ccc(Cl)cc1Cl` [B3], the activity at 30 µM was 338%.
Then `C=CCOc1ccc2c(-c3ccccc3)c(-c3cccc(Br)c3)c(=O)oc2c1` [E4], with 400%; and `O=c1oc2ccccc2c(-c2ccccc2)c1-c1cccc(Br)c1` [G5], with 65.1%; and `Cc1cc2oc(=O)c(-c3ccc(Cl)cc3Cl)c(-c3ccccc3)c2cc1Cl` [A4], with 361%.
Regarding `O=C(O)c1ccccc1-c1c2ccc(=O)cc-2oc2cc(O)ccc12` [A2], the activity at 30 µM stood at 293%.
Then `O=c1oc2cc(O)ccc2c(Cc2ccc(Cl)cc2)c1-c1ccccc1` [A3], with 324%.
Then `O=c1oc2ccc(Br)cc2c(-c2ccccc2)c1-c1cccc(Cl)c1` [F4], with 365%; and `O=c1oc2cc(O)cc(-c3ccccc3)c2cc1-c1ccccc1Cl` [C3 ST081388], with 317%; and `O=c1oc2c(Br)cc(Cl)cc2c(-c2ccccc2)c1-c1ccc(Br)cc1` [B2], with 331%.
Then `Cc1cc2oc(=O)c(-c3ccc(Cl)cc3Cl)c(-c3ccc(Cl)cc3)c2cc1Cl` [D6], with 360%.
Consider `O=c1oc2ccc(Br)cc2c(-c2ccccc2)c1-c1ccccc1Cl` [E3], for which the activity at 30 µM came out at 347%.
Then `O=c1oc2ccccc2c(-c2ccccc2)c1-c1ccccc1` [H4], with 346%; and `O=c1oc2c(Cl)cc(Cl)cc2c(-c2ccccc2)c1-c1ccc(Cl)cc1Cl` [F5], with 105%; and `Cc1ccc2oc(=O)c(-c3ccc(Cl)cc3Cl)c(-c3ccc(Cl)cc3)c2c1` [B6], with 91.2%.
Then `O=CC1Cc2cc3c4c(c2OC1=O)CCCN4CCC3` (stereo not shown) [E6], with 367%; and `Cc1ccc2c(-c3ccccc3)c(-c3ccc(Br)cc3)c(=O)oc2c1` [B4], with 390%.
Then `O=c1oc2ccc(Br)cc2c(-c2ccc(Cl)cc2)c1-c1ccc(Cl)cc1` [G3], with 365%; and `O=c1oc2ccc(Br)cc2c(-c2ccc(Cl)cc2)c1-c1ccc(Cl)cc1Cl` [C4], with 432%; and `O=c1oc2c(Cl)cc(Cl)cc2c(-c2ccccc2)c1-c1ccccc1` [C5], with 87.2%.
On to `Cc1cc2oc(=O)c(-c3ccc(Br)cc3)c(-c3ccccc3)c2cc1Cl` [G4], for which the activity at 30 µM stood at 390%.
As for `Cc1ccc2oc(=O)c(-c3ccccc3)c(-c3ccccc3)c2c1` [H5], the activity at 30 µM was determined as 70.1%.
Regarding `O=C(O)C1Cc2cc3c4c(c2CC1=O)CCCN4CCC3` (stereo not shown) [D2], the activity at 30 µM stood at 336%.
Then `O=c1oc2cc(O)ccc2c(-c2ccccc2)c1-c1ccccc1` [C2], with 311%.
